Results reported in patent US12516049B2, “Sulfonylurea ring substituted monocyclic β-lactam antibiotics” (priority 2019, dated 2026).
Values after ≈ are worked out from the molar mass of the structure shown.

Columns and labels:
Assay type in all cases: cell-based
[1] = system: Enterobacter cloacae ATCC BAA-1143 (AmpC); experiment: MIC, micro-liquid dilution (CLSI); conditions: ATCCBAA1143, E. cloacae ATCC BAA-1143, Class C (AmpC), 20-24 h, 37° C.
Description: (§1) Three strains of Klebsiella pneumonia, ATCC BAA-205 (TEM-1/SHV-1/SHV-12), ATCC BAA-1705 (KPC-2), ATCC BAA-2470 (NDM-1), Enterobacter cloacae ATCC BAA-1143 (AmpC), two strains of Escherichia coli ATCC BAA-2523 (OXA-48), ATCC 25922 were used to determine the minimum inhibitory concentration (MIC) of each of the compounds by micro-liquid dilution method according to the Institute of Clinical and Laboratory Standard (CLSI) requirements. […]. The plate was placed upside down at 37° C. and the MIC value was read after 20-24 h of incubation, and the lowest drug concentration that inhibited the growth of bacteria was set as MIC. Colony-Forming Units (CFU) refer to the total number of bacterial colonies per unit volume.

[2] = system: Escherichia coli ATCC 25922; experiment: MIC, micro-liquid dilution (CLSI); conditions: ATCC25922, E. coli ATCC 25922, 20-24 h, 37° C.
Description: as §1

[3] = system: Escherichia coli ATCC BAA-2523 (OXA-48); experiment: MIC, micro-liquid dilution (CLSI); conditions: ATCCBAA2523
Description: as §1

[4] = system: Klebsiella pneumonia ATCC BAA-1705 (KPC-2); experiment: MIC, micro-liquid dilution (CLSI); conditions: Klebsiella pneumoniae, ATCCBAA1705; K. pneumonia ATCC BAA-1705, Class A (KPC-2); 20-24 h, 37° C.
Description: as §1

[5] = system: Klebsiella pneumonia ATCC BAA-205 (TEM-1/SHV-1/SHV-12); experiment: MIC, micro-liquid dilution (CLSI); conditions: Klebsiella pneumoniae, ATCCBAA205; K. pneumonia ATCC BAA-205, Class A (TEM-1/SHV-1/SHV-12); 20-24 h, 37° C.
Description: as §1

[6] = system: Klebsiella pneumonia ATCC BAA-2470 (NDM-1); experiment: MIC, micro-liquid dilution (CLSI); conditions: Klebsiella pneumoniae, ATCCBAA2470; K. pneumonia ATCC BAA-2470, Class B (NDM-1); 20-24 h, 37° C.
Description: as §1

E.coli 020028 = experiment: MIC, two-fold agar dilution, clinical isolate; conditions: Escherichia coli, single drug, average of three tests
Description: (§2) The minimum inhibitory concentration (MIC) of the compound and combination with β-lactamase (MBLs) inhibitors against clinically isolated carbapenem-resistant enterobacteriaceae was determined by the two-fold agar dilution method to determine the activity of the compound to be tested against strains producing MBLs. Antibiotics and enzyme inhibitors were weighed separately and dissolved in sterile ultrapure water or dimethyl sulfoxide to prepare mother liquor, MHA medium was prepared, pH was adjusted to 7.2-7.4, and it was sterilized at 121° C. for 15 minutes and placed in a 55° C. water bath for heat preservation. The mother liquor was diluted to the concentration to be tested by double dilution method, an inoculum liquid was prepared by direct bacterial suspension method, 1 mL of the prepared bacteria solution was withdrawn and putted into the inoculation tube, and a positioning needle and an inoculation needle were installed. A bacterial multi-point inoculator was started for inoculation. After the bacterial solution was absorbed by the agar, the plate was placed upside down in an incubator at 37° C. for 16-20 hours, and the results were observed. The average of three tests was taken.

E.coli 020031 = experiment: MIC, two-fold agar dilution, clinical isolate; conditions: Escherichia coli, single drug, average of three tests
Description: as §2

E.coli 020033 = experiment: MIC, two-fold agar dilution, clinical isolate; conditions: Escherichia coli, single drug, average of three tests
Description: as §2

E.coli 115103 = experiment: MIC, two-fold agar dilution, clinical isolate; conditions: Escherichia coli; E.coli 115103; single drug; average of three tests; read-out: MIC
Description: as §2

E.coli BAA-2452 = experiment: MIC, two-fold agar dilution, clinical isolate; conditions: Escherichia coli, BAA2452
Description: as §2

E.coli CRE23 = experiment: MIC, two-fold agar dilution, clinical isolate; conditions: Escherichia coli; E.coli CRE23; single drug; average of three tests; read-out: MIC
Description: as §2

E.coli CRE28 = experiment: MIC, two-fold agar dilution, clinical isolate; conditions: Escherichia coli; E.coli CRE28; single drug; average of three tests; read-out: MIC
Description: as §2

K.p 090339 = experiment: MIC, two-fold agar dilution, clinical isolate
Description: as §2

K.p 115004 = experiment: MIC, two-fold agar dilution, clinical isolate
Description: as §2

K.p 13249 = experiment: MIC, two-fold agar dilution, clinical isolate; conditions: K.p 13249; single drug; average of three tests; read-out: MIC
Description: as §2

K.p 6777 = experiment: MIC, two-fold agar dilution, clinical isolate
Description: as §2

K.p BAA-2470 = experiment: MIC, two-fold agar dilution, clinical isolate
Description: as §2

K.p C904 = experiment: MIC, two-fold agar dilution, clinical isolate
Description: as §2

K.p CRE11 = experiment: MIC, two-fold agar dilution, clinical isolate
Description: as §2

K.p CRE12 = experiment: MIC, two-fold agar dilution, clinical isolate; conditions: single drug, average of three tests
Description: as §2

K.p CRE16 = experiment: MIC, two-fold agar dilution, clinical isolate; conditions: single drug, average of three tests
Description: as §2

K.p HX37 = experiment: MIC, two-fold agar dilution, clinical isolate; conditions: K.p HX37; single drug; average of three tests; read-out: MIC
Description: as §2

K.p HX77 = experiment: MIC, two-fold agar dilution, clinical isolate; conditions: single drug, average of three tests
Description: as §2

[7] = system: clinically isolated carbapenem-resistant enterobacteriaceae; conditions: single drug; panel of 26 strains of Table 2
Description: as §2, with “Antibiotics and enzyme inhibitors were weighed separately and dissolved in sterile ultrapure water or dimethyl sulfoxide to prepare mother liquor, MHA medium was prepared, pH was adjusted to 7.2-7.4, and it was sterilized at 121° C. for 15 minutes and placed in a 55° C. water bath for heat preservation.” left out

SMILES: NC[C@@H]1CN(C[C@@H]2[C@H](NC(=O)/C(=N\OC3(C(=O)O)CC3)c3csc(N)n3)C(=O)N2S(=O)(=O)O)S(=O)(=O)N1 [Compound 4]
- MIC [1]: 0.5 µg/mL (≈ 0.858 µM)
- MIC [2]: 0.25 µg/mL (≈ 0.429 µM)
- MIC [3]: 0.125 µg/mL (≈ 0.215 µM)
- MIC [4]: 1 µg/mL (≈ 1.72 µM)
- MIC [5]: 0.5 µg/mL (≈ 0.858 µM)
- MIC [6]: 0.25 µg/mL (≈ 0.429 µM)
- MIC (E.coli 020028): 0.03 µg/mL
- MIC (E.coli 020031): 0.5 µg/mL
- MIC (E.coli 020033): 1 µg/mL
- MIC (E.coli 115103): 1 µg/mL
- MIC (E.coli BAA-2452): 0.125 µg/mL
- MIC (E.coli CRE23): 1 µg/mL
- MIC (E.coli CRE28): 1 µg/mL
- MIC (K.p 090339): 0.125 µg/mL
- MIC (K.p 115004): 0.125 µg/mL
- MIC (K.p 13249): 0.06 µg/mL
- MIC (K.p 6777): 0.125 µg/mL
- MIC (K.p BAA-2470): 0.125 µg/mL
- MIC (K.p C904): 0.125 µg/mL
- MIC (K.p CRE11): 0.125 µg/mL
- MIC (K.p CRE12): 0.06 µg/mL
- MIC (K.p CRE16): 0.06 µg/mL
- MIC (K.p HX37): 0.25 µg/mL
- MIC (K.p HX77): 0.03 µg/mL
- MIC50 [7]: 0.125 µg/mL
- MIC90 [7]: 1 µg/mL
